# Assay results taken from patent publication US20260176260A1, “DUAL RAF AND TUBULIN INHIBITORS AND METHODS OF USE THEREOF” (Deciphera Pharmaceuticals, LLC, priority 2023, published 2026).
# pIC50: −log10 of the molar value. Where two headings read alike, the source gives them in different places.
# What was measured:
# [1] = test system: tubulin polymerization in HCT-116 cells; experiment: Cellular tubulin polymerization assay (pellet/supernatant a-tubulin, HCT-116 cells); assay type: cell-based; conditions: Table 3, HCT-116 cells; read-out: Tubulin Cellular
# Protocol: HCT-116 cells (catalog #CCL-247) are obtained from the American Type Culture Collect (ATCC, Manassas, VA). Briefly, cells are grown in McCoy's 5A supplemented with 10% characterized fetal bovine serum (Invitrogen, Carlsbad, CA) and 1% Penicillin/Streptomycin/L-Glutamine at 37° C., 5% CO2, and 95% humidity. Cells are expanded until reaching 70-95% confluency at which point they are sub-cultured or harvested for assay use. 450000 cells are added per well in 1500 μL complete growth medium in a tissue culture treated, 12-well plate. Plates are incubated for 18 to 24 h at 37° C., 5% CO2, and 95% humidity. At the end of the incubation, 2000 μL of base culture media is added to each well, followed by a serial dilution of compound. Plates are incubated for an additional 1 h at 37° C., 5% CO2, and 95% humidity. Lysates are generated by the addition of 100 μL Lysis and Microtubule Stabilization Buffer 1 (LMS01, Cytoskeleton Inc, Denver, CO) supplemented with GTP (BST06, Cytoskeleton Inc), ATP (BSA04, Cytoskeleton Inc), and Protease Inhibitor Cocktail Stock (PIC02, Cytoskeleton Inc). Cells are scraped off wells using a rubber cell scraper and collected in a clean 96-well plate. Lysates are centrifuged at 1000×g, 37° C. for 10 min and supernatant fraction is placed into an additional 96-well plate. The remaining pellet fraction is reconstituted in 100 μL LMS01 buffer and sonicated for 10 min. Pellet and Supernatant fractions are probed for a-tubulin via western blot analysis on the Jess System or equivalent (Bio-techne, Minneapolis, MN). Data is analyzed using Prism software (Graphpad, San Diego, CA) to calculate IC50 values.
# B-Raf kinase = target: T1, B-Raf kinase (Homo sapiens, UniProt P15056); experiment: Biochemical assay for B-Raf (coupled pyruvate kinase/lactate dehydrogenase); conditions: read-out: BRAF
# T1 construct: purchased Sigma
# HCT-116 cells = experiment: HCT-116 cell proliferation assay (resazurin); assay type: cell-based; conditions: read-out: HCT-116
# Method in brief: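 HCT-116 cells, 375 per well in McCoy's 5A with 10% FBS, exposed to serially diluted compound in triplicate for 67-72 h at 37 °C. Resazurin added for 4-5 h more; fluorescence (ex 540/em 600 nm) fitted to IC50.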
# [2] = Table 1, inhibition of biochemical activity
# [3] = Homo sapiens, Table 2, inhibition of cell proliferation
# T1 sequence (P15056 416-766): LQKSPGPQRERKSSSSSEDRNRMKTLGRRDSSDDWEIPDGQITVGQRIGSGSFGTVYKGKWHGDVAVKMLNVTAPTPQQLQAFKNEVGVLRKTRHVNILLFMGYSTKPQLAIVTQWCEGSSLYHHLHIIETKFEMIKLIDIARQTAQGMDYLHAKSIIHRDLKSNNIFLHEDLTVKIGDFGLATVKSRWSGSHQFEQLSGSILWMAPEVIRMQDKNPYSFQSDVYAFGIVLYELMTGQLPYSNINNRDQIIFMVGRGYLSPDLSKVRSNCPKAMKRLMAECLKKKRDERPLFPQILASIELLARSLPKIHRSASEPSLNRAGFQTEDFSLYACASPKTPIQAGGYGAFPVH
pIC50 [1],pIC50 (B-Raf kinase; [2]),pIC50 (B-Raf kinase; Table 3),pIC50 (HCT-116 cells; [3]),pIC50 (HCT-116 cells; Table 3),Compound
6.30 to 7.00,6.30 to 7.00,6.30 to 7.00,6.00 to 6.30,6.00 to 6.30,"CNC(=O)c1cc(-c2cc(-c3cc(NC(=O)c4cc(C(F)(F)F)cnn4)ccc3C)cc(C)n2)ccn1 [Example 2, N,6-dimethyl-4-(2-methyl-5-(5-(trifluoromethyl)pyridazine-3-carboxamido)phenyl)-[2,4′-bipyridine]-2′-carboxamide]"
6.30 to 7.00,> 7.00,> 7.00,6.30 to 7.00,6.30 to 7.00,CNC(=O)c1cc(-c2cc(-c3cc(NC(=O)c4cc(C(F)(F)F)cnn4)ccc3C)ccn2)ccn1 [Example 9]

# The remaining lines, values behind:
Compound,pIC50 [1],pIC50 (B-Raf kinase; [2]),pIC50 (B-Raf kinase; Table 3),pIC50 (HCT-116 cells; [3]),pIC50 (HCT-116 cells; Table 3)
CNC(=O)c1cc(-c2cc(-c3cc(NC(=O)c4cc(C5CC5)cnn4)ccc3C)ccn2)ccn1 [Example 26],6.30 to 7.00,> 7.00,> 7.00,6.30 to 7.00,6.30 to 7.00
CNC(=O)c1cc(-c2cc(-c3cc(NC(=O)c4cc(C5CC5)cnn4)ccc3C)cc(NCCO)n2)ccn1 [Example 27],6.30 to 7.00,> 7.00,> 7.00,> 7.00,> 7.00
CNC(=O)c1cc(-c2cc(-c3cc(NC(=O)c4cc(C(F)(F)F)cnn4)ccc3C)cc(NCCO)n2)ccn1 [Example 18],> 7.00,> 7.00,> 7.00,> 7.00,> 7.00
